Values of other authors as cited in patent US20170266293A1, “METHODS OF TREATING CANCERS WITH THERAPEUTIC NANOPARTICLES” (PFIZER INC., priority 2011, published 2017).

Tested on: cholangiocarcinoma
Details: previous studies, Pazdur, Am. J. Clin. Oncol. 1999

CC(=O)O[C@@]12CO[C@@H]1C[C@H](O)[C@@]1(C)C(=O)[C@H](O)C3=C(C)[C@@H](OC(=O)[C@H](O)[C@@H](NC(=O)OC(C)(C)C)c4ccccc4)C[C@@](O)([C@@H](OC(=O)c4ccccc4)[C@H]21)C3(C)C [docetaxel]
Efficacy for the treatment of cholangiocarcinoma: ineffective
